# From patent publication US20060025430A1, “Novel irreversible inhibitors of epidermal growth factor receptor tyrosine kinase and uses thereof for therapy and diagnosis” (priority 2003, published 2006)
# Entries after “also recorded” stand apart in the source; their conditions may differ.
# What was measured:
# EGFR-TK [1] = molecular target: T1, EGFR-TK (Homo sapiens, UniProt P00533); test: EGFR-TK autophosphorylation inhibition in intact A431 cells (irreversibility assay, Western blot); assay type: cell-based; details: for nature of binding to the receptor (irreversibility): intact A431 cells, inhibition 8 hours post incubation
# T1 construct: The supernatant, which contained the EGFR, was collected and frozen; endogenous in cells; host or cells: A431 cells (A1: Triton X-100 lysate captured on mAb108; A2: intact cells)
# T1 sequence (P00533 25-1210): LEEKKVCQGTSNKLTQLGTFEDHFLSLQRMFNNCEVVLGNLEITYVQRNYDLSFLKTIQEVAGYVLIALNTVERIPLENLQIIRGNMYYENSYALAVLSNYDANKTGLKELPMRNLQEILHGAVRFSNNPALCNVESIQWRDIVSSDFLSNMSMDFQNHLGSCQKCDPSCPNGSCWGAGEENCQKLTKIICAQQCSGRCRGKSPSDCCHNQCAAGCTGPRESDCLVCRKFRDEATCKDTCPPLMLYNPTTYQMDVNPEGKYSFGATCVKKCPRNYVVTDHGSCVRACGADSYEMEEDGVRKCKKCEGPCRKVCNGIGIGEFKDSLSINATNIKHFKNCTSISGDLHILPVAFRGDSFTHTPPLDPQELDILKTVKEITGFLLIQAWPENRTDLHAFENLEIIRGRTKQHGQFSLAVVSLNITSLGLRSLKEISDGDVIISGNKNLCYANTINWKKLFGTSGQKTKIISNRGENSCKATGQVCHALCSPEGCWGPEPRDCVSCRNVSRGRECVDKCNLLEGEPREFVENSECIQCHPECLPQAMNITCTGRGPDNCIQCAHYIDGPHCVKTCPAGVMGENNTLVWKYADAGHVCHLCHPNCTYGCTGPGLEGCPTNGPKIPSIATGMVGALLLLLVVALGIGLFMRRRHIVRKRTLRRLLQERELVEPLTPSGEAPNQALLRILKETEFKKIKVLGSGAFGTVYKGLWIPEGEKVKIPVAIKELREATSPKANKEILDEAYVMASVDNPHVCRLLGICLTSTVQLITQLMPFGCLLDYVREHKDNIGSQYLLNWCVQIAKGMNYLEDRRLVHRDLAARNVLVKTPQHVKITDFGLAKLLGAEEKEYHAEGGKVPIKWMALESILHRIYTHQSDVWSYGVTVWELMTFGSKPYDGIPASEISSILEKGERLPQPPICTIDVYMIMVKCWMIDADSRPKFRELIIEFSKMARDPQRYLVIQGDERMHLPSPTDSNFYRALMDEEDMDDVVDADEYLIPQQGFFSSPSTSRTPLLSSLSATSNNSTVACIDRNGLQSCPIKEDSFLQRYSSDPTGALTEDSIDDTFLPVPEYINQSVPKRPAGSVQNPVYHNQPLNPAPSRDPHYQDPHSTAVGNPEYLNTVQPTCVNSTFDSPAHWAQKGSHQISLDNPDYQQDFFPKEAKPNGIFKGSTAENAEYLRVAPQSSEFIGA
# Experimental: A431 cells (5×10^5) were seeded in 6-well plates and grown for 24 hours to about 90% confluence in DMEM (high glucose) containing 10% fetal calf serum (FCS) and antibiotics at 37° C. The cells were then exposed to serum-free medium, at 37° C., for 18 hours.
# […] The medium was replaced thereafter with an inhibitor/FCS-free medium and the cells were divided into two groups: cells of the first group were immediately stimulated with EGF (20 ng/ml) for 5 minutes and then washed with PBS, while cells of the second group were incubated for additional 8 hours, at 37° C. During the 8 hours period, the medium was changed three times (after 2, 4 and 8 hours). After the post-incubation period, the cells of the second group were stimulated with EGF (20 ng/ml) for 5 minutes and then washed with PBS.
# Identical protein amounts from each lysate sample were loaded onto polyacrylamide gel (6% or 10%), separated by electrophoresis (Hoefer Pharmacia Biotech Inc., San Francisco, USA) and transferred to nitrocellulose membrane (power supply: EPS 500/400, Amersham Pharmacia Biotech; nitrocellulose extra blotting membranes: Sartorius AG, Goettingen, Germany). A standard high molecular weight solution was loaded as a reference. For visualization of molecular weight bands, the membrane was immersed in Ponceau reagent (0.05% Ponceau, 5% acetic acid) for a few minutes, and then washed twice with TTN (10 mM Tris pH 7.4, 0.2% TWEEN 20, 170 mM NaCl) and once with water. The membrane was blocked overnight in TTN containing 5% milk (1% fat) (blocking TTN) and incubated for 90 minutes with PY20 antiphosphotyrosine antibody (Santa Cruz Biotechnology Inc., Santa Cruz, USA) diluted 1:2,000 in blocking TTN. The membrane was then washed with TTN (3×5 minutes), incubated for 90 minutes with a horseradish peroxidase-conjugated secondary antibody (Goat anti-mouse IgG H+L, Jackson ImResearch Laboratories, Inc., diluted 1:10,000 in blocking TTN), and finally washed again with TTN (3×5 minutes).
# After the incubation, the media was replaced with inhibitor/FCS-free media and the inhibition effect was measured either immediately thereafter or after 8 hours post incubation.
# EGFR = molecular target: T2, EGFR (Homo sapiens, UniProt P00533); test: Selective-inhibition assay in DHER14 cells (receptor phosphotyrosine, Western blot); assay type: cell-based; details: DHER14 cells expressing EGFR, 1 hour incubation, EGF stimulation
# T2 construct: expressed in transfected cells; host or cells: NIH3T3 (DHER14 cells)
# T2 sequence (P00533 25-1210): as above
# Experimental: (§1) NIH3T3 cells transformed with either the EGFR (DHER14 cells), with the HER1-HER2 chimera (CSH12 cells) or with the PDGFR (NIH/PDGFR cells), decribed by Lee et al.; 1989, Honegger et al., 1988; and Shawver et al. 1997, and A431 human epidermoid vulval carcinoma cells were grown in Dulbecco's modified Eagle's medium (DMEM) (Biological industries, Kibbuts Beit Haemek, Israel) supplemented with 10% fetal calf serum and antibiotics (penicillin […], streptomycin 100 mg/liter) at 37° C. in 5% CO2.
# (§2) Selective-inhibition assay: CSH12, DHER14 and […] cells, expressing either the HER1-HER2 chimera, EGFR or PDGFR, respectively, were used for the determination of inhibitory selectivity. Cells (7.5×10^4) were grown in 6-well plates (35 mm diameter, Nalge Nunc) for 24 hours and then incubated in 0.25% FCS-containing medium for an additional 24 hours to about 90% confluence. Duplicate sets of cells were treated with the tested compounds at varying concentrations for 1 hour. The final concentration of the vehicle in the medium was 0.05% DMSO, 0.1% EtOH. After removal of the inhibitor from the medium, PBS wash (×2) and addition of 0.25% serum-containing medium to the wells, the cells were stimulated with either 20 ng/mL human EGF for 5 minutes (CSH12 and DHER14 cells) or 50 ng/ml human PDGFββ for 10 minutes ([…] cells) at 37° C. […]
# [2] = Challenge reaction with reduced glutathione (HPLC conversion to conjugates); assay type: physicochemical; details: even at temperatures exceeding 100° C.
# PDGFR = PDGFR (Homo sapiens, UniProt P09619); test: Selective-inhibition assay in […] cells (receptor phosphotyrosine, Western blot); assay type: cell-based; details: […] cells expressing PDGFR, 1 hour incubation, PDGFββ stimulation
# Chain of PDGFR (P09619 whole entry): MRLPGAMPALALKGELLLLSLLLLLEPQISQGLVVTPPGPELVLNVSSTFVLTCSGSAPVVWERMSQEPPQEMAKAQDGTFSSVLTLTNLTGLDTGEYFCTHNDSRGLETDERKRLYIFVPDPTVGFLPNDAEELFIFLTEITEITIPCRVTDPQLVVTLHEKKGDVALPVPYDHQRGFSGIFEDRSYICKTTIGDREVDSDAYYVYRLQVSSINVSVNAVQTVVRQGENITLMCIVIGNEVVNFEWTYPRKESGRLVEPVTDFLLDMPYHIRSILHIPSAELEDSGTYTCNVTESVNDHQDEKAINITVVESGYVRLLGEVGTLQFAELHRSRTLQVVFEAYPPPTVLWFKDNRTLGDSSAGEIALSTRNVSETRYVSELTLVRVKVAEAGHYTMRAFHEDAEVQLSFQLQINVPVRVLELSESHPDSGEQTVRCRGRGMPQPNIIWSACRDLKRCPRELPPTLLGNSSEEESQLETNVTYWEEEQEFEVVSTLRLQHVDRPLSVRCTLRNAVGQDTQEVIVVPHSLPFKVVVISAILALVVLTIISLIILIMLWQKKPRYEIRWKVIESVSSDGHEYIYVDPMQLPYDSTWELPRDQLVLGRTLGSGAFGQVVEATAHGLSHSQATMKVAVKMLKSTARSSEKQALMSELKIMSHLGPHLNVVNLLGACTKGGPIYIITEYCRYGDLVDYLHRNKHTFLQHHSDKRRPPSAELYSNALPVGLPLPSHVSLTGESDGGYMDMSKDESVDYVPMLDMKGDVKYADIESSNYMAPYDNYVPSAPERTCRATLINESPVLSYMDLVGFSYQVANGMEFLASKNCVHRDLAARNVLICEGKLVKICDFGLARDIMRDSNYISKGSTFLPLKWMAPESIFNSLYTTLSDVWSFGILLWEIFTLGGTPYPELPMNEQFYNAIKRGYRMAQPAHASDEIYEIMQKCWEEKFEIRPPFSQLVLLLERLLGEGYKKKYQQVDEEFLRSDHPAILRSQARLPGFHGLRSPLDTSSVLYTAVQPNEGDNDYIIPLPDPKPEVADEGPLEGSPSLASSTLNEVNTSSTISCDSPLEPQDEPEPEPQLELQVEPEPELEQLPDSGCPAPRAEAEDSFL
# Experimental: as §1, §2
# [3] = Challenge reaction with reduced glutathione (HPLC conversion to conjugates); assay type: physicochemical
# Experimental: Standard solutions were prepared by dissolving compound 5, Compound 6 and {4-[(3,4-dichloro-6-fluorophenyl)amino]quinazol ine-6-yl}acrylamide (0.0146 mmol) in 1.75 ml of THF: MeOH (1:2) and glutathione (18 mg, 0.0586 mmol) in 0.5 ml of water. A 300 μL aliquot of the quinazoline standard solution (2.5 μmol) was diluted with 689 μL of THF:MeOH:H2O (1:2:1), after which 11 μL (1.25 μmol) of glutathione solution and 5.22 μL (30 μmol) of N,N′-diisopropylethylamine were added. Conversions of the quinazolines and formation of conjugates at different time points were measured by HPLC using RP (3.9×300 mm) column (mobile phase of acetonirile and acetate buffer 0.1 M (2:3) at a flow rate of 1 ml/min was used herein). The glutathione conjugates were further detected by MS.
# As discussed hereinabove, EGFR blockade by irreversible inhibitors is due to the nucleophilic attack of the sulfhydryl group of Cys-773 at the receptor's ATP binding pocket on the reactive chemical group of the EGFR targeted inhibitor. In order to evaluate the chemical reactivity of the novel irreversibly EGFR inhibitors decribed herein, the degree of reactivity of the inhibitors towards the sulfhydryl group of reduced glutathione (GSH) as a nucleophile was tested. Thus, Compound 5, Compound 6 and {4-[(3,4-dichloro-6-fluorophenyl)amino]quinazoline-6-yl}acrylamide were dissolved in THF: MeOH: H2O (1:2:1), and were reacted at room temperature with half an equivalent of reduced glutathione in the presence of 12 equivalents of N,N-diisopropylethylamine. Identical aliquots of the reaction mixtures were taken at various time points and injected into reversed-phase HPLC in order to determine the conversion-rate of the various compounds into glutathione-conjugates. The characteristics of the products were determined using MS.
# A study of the reaction rate as a function of the temperature was also performed. Thus, the reaction ws performed at various temperatures ranging from 0° C. and 60° C. The following activation parameters were generated: For {4-[(3,4-dichloro-6-fluorophenyl)amino]quinazoline-6-yl}acrylamide: Ea=5.24 kCalmol^−1, ΔH^#25° C.=4.64 kCalmol^−1 and ΔS^#25° C.=−61.24 Calmol^−1K^−1. For compound 5: Ea=11.4 kCalmol^−1, ΔH^#25° C.=10.80 kCalmol^−1 and ΔS^#25° C.=−41.29 Calmol^−1K^−1.
# The reaction rate was calculated using the following rate equation: [formula] kobs=Ae^−Ea/RT
# EGFR-TK [4] = molecular target: T1, EGFR-TK; test: EGFR-TK autophosphorylation inhibition in A431 cell lysate (ELISA); assay type: biochemical; details: read-out: A431 lysate IC50 app
# Experimental: All the following incubations were performed at room temperature and with constant shaking. […] The final volume for each well was 150 μl.
# In this step the temperature was kept at 26° C. and the plate was under constant shaking. The incubation with ATP/MnCl2 was for 5 minutes.
# Afterward, polyclonal anti-phosphotyrosine serum (Sugen, Inc.) was added (dilution of antibody in TBST containing 5% milk). The incubation was for 45 minutes.
# [5] = Intact A431 cells IC50 range (1 hr post incubation with inhibitor), 1 hour incubation with inhibitor, medium replaced, EGF stimulation immediately
# [6] = Intact A431 cells IC50 range (8 hr post incubation with inhibitor), 1 hour incubation, then 8 hours in inhibitor-free medium before EGF stimulation
SMILES,melting point [°C],IC50 (EGFR-TK [1]; [5]) [nM],IC50 (EGFR-TK [1]; [6]) [nM],IC50 (EGFR-TK [4]) [nM],other results
"COCC(=O)Nc1ccc2ncnc(Nc3cccc(Br)c3)c2c1 [Compound 2, N-{4-[(3-bromophenyl)amino]-quinazolin-6-yl}-2-methoxyacetamide]",190 to 191,,,,
"O=C(CCl)Nc1ccc2ncnc(Nc3cccc(I)c3)c2c1 [Compound 3, N-{4-[(3-iodophenyl)amino]-quinazolin-6-yl}-2-chloroacetamide]",> 300,,,,
"COCC(=O)Nc1ccc2ncnc(Nc3cccc(I)c3)c2c1 [Compound 4, N-{4-[(3-iodophenyl)amino]-quinazolin-6-yl}-2-methoxyacetamide]",,,,,nature of binding to the receptor (irreversibility) (EGFR-TK [1]): partial irreversible
"C=CC(=O)Nc1ccc2ncnc(Nc3cc(Cl)c(Cl)cc3F)c2c1 [Compound A, N-{4-[(3,4-dichloro-6-fluorophenyl)amino]quinazoline-6-yl}acrylamide, reference compound]",,,,,"ΔH^# 25° C. of reaction with reduced glutathione ([3]; 25° C.): 4.64 kCalmol^−1; ΔS^# 25° C. of reaction with reduced glutathione ([3]; 25° C.): −61.24 Calmol^−1K^−1; reaction rate constant with reduced glutathione ([3]; room temperature, THF:MeOH:H2O (1:2:1), half an equivalent GSH, 12 equivalents N,N-diisopropylethylamine): 0.0001 M/min; activation energy Ea of reaction with reduced glutathione ([3]; temperatures from 0° C. to 60° C.): 5.24 kCalmol^−1"
C=CC(=O)Nc1ccc2ncnc(Nc3cc(Cl)c(Cl)cc3F)c2c1 [drawing 14],,5 to 50,5 to 50,,"IC50 (EGFR-TK [4]; apparent IC50, ELISA, 5 μM ATP/5 mM MnCl2, average of four dose-response curves): 0.037 nM"
COCC(=O)Nc1ccc2ncnc(Nc3cccc(I)c3)c2c1 [drawing 18],,1000 to 20000,> 80000,65,
O=C(CCl)Nc1ccc2ncnc(Nc3cc(Cl)c(Cl)cc3F)c2c1 [drawing 19],,1 to 20,1 to 20,5.55,
COCC(=O)Nc1ccc2ncnc(Nc3cc(Cl)c(Cl)cc3F)c2c1 [drawing 20],,,10000 to 50000,113,

# The next lines start with results.
melting point [°C],IC50 (EGFR-TK [1]; [5]) [nM],IC50 (EGFR-TK [1]; [6]) [nM],IC50 (EGFR-TK [4]) [nM],SMILES,other results
> 300,,,,"O=C(CCl)Nc1ccc2ncnc(Nc3cccc(Br)c3)c2c1 [Compound 1, N-{4-[(3-bromophenyl)amino]-quinazolin-6-yl}-2-chloroacetamide]",
204 to 206,,,,"COCC(=O)Nc1ccc2ncnc(Nc3cc(Cl)c(Cl)cc3F)c2c1 [Compound 6, N-{4-[(4,5-Dichloro-2-fluoro-phenyl)amino]-quinazolin-6-yl}-2-methoxyacetamide]",IC50 (EGFR): > 250 nM; nature of binding to the receptor (irreversibility) (EGFR-TK [1]): partial irreversible; change in the reaction rate with GSH with temperature [2]: no change in the reaction rate; also recorded: could not be detected; IC50 (PDGFR): > 1000 nM
